Measurements as given in patent publication US10173982B2, “Picolinamides as fungicides” (Dow AgroSciences LLC, priority 2016, dated 2019).
Where two headings read alike, the source gives them in different places.

Columns and labels:
Zymoseptoria tritici = assay: Fungicidal activity: leaf blotch of wheat (SEPTTR), percent disease control on wheat seedlings; format: in vivo; details: for pest or weed control at 121.5 g/ha / pest or weed control at 100 ppm: Zymoseptoria tritici; for pest or weed control at 121.5 g/ha: LV (low volume) activity at 121.5 g/H; for pest or weed control at 100 ppm / SEPTTR 1DP disease control rating / SEPTTR 3DC disease control rating: HV (high volume) activity at 100 ppm
Description: Technical grades of materials were dissolved in acetone, which were then mixed with nine volumes of water containing 110 ppm Triton X-100. The fungicide solutions were applied onto wheat seedlings using an automated booth sprayer to run-off. All sprayed plants were allowed to air dry prior to further handling. All fungicides were evaluated using the aforementioned method for their activity vs. all target diseases, unless stated otherwise. Wheat leaf blotch and brown rust activity were also evaluated using track spray applications, in which case the fungicides were formulated as EC formulations, containing 0.1% Trycol 5941 in the spray solutions. Wheat plants (variety Yuma) were grown from seed in a greenhouse in 50% mineral soil/50% soil-less Metro mix until the first leaf was fully emerged, with 7-10 seedlings per pot. These plants were inoculated with an aqueous spore suspension of Zymoseptoria tritici either prior to or after fungicide treatments. After inoculation the plants were kept in 100% relative humidity (one day in a dark dew chamber followed by two to three days in a lighted dew chamber at 20° C.) to permit spores to germinate and infect the leaf. The plants were then transferred to a greenhouse set at 20° C. for disease to develop. When disease symptoms were fully expressed on the 1st leaves of untreated plants, infection levels were assessed on a scale of 0 to 100 percent disease severity. Percent disease control was calculated using the ratio of disease severity on treated plants relative to untreated plants.

Puccinia triticina = assay: Fungicidal activity: wheat brown rust (PUCCRT), percent disease control on wheat seedlings; format: in vivo; details: for pest or weed control at 121.5 g/ha / pest or weed control at 100 ppm: Puccinia triticina; for pest or weed control at 121.5 g/ha: LV (low volume) activity at 121.5 g/H; for pest or weed control at 100 ppm / PUCCRT 1DP disease control rating / PUCCRT 3DC disease control rating: HV (high volume) activity at 100 ppm
Description: Technical grades of materials were dissolved in acetone, which were then mixed with nine volumes of water containing 110 ppm Triton X-100. The fungicide solutions were applied onto wheat seedlings using an automated booth sprayer to run-off. All sprayed plants were allowed to air dry prior to further handling. All fungicides were evaluated using the aforementioned method for their activity vs. all target diseases, unless stated otherwise. Wheat leaf blotch and brown rust activity were also evaluated using track spray applications, in which case the fungicides were formulated as EC formulations, containing 0.1% Trycol 5941 in the spray solutions. Wheat plants (variety Yuma) were grown from seed in a greenhouse in 50% mineral soil/50% soil-less Metro mix until the first leaf was fully emerged, with 7-10 seedlings per pot. These plants were inoculated with an aqueous spore suspension of Puccinia triticina either prior to or after fungicide treatments. After inoculation the plants were kept in a dark dew room at 22° C. with 100% relative humidity overnight to permit spores to germinate and infect the leaf. The plants were then transferred to a greenhouse set at 24° C. for disease to develop. Fungicide formulation, application and disease assessment followed the procedures as described in the Example A. Results of the evaluations are shown below in Table 4.

[1] = 24 h, 1 Day Protectant, read-out: SEPTTR 1DP disease control rating
[2] = 72 h, 3 Day Curative, read-out: SEPTTR 3DC disease control rating
[3] = 24 h, 1 Day Protectant, read-out: PUCCRT 1DP disease control rating
[4] = 72 h, 3 Day Curative, read-out: PUCCRT 3DC disease control rating

Row | Structure (SMILES) | pest or weed control at 100 ppm (Zymoseptoria tritici; [1]) [%] | pest or weed control at 100 ppm (Zymoseptoria tritici; [2]) [%] | pest or weed control at 100 ppm (Puccinia triticina; [3]) [%] | pest or weed control at 100 ppm (Puccinia triticina; [4]) [%] | other results
1 | COc1ccnc(C(=O)N[C@@H](C)C(=O)O[C@@H](C)[C@@H](c2ccccc2)S(=O)(=O)Cc2ccccc2)c1OC(C)=O [Compound 72] | – | – | – | – | pest or weed control at 121.5 g/ha (Zymoseptoria tritici; [1]): ≤ 80%; pest or weed control at 121.5 g/ha (Zymoseptoria tritici; [2]): ≤ 0%; pest or weed control at 121.5 g/ha (Puccinia triticina; [3]): ≤ 0%; pest or weed control at 121.5 g/ha (Puccinia triticina; [4]): ≤ 0%
2 | COc1ccnc(C(=O)N[C@@H](C)C(=O)O[C@@H](C)[C@H](Sc2ccccc2)c2ccc(F)cc2)c1O [Compound 39] | > 80 | > 80 | > 80 | > 80 | –
3 | COc1ccnc(C(=O)N[C@@H](C)C(=O)O[C@@H](C)[C@H](Sc2ccc(F)cc2C)c2ccccc2)c1O [Compound 55] | – | – | – | – | SEPTTR 1DP disease control rating (Zymoseptoria tritici; 1 Day Protectant): A (>80); SEPTTR 3DC disease control rating (Zymoseptoria tritici; 3 Day Curative): B (≤80); PUCCRT 1DP disease control rating (Puccinia triticina; 1 Day Protectant): A (>80); PUCCRT 3DC disease control rating (Puccinia triticina; 3 Day Curative): D (≤0)
4 | COc1ccnc(C(=O)N[C@@H](C)C(=O)O[C@@H](C)[C@@H](c2ccccc2)S(=O)(=O)c2ccc(F)cc2)c1O [Compound 41] | ≤ 80 | ≤ 80 | ≤ 0 | ≤ 0 | –
5 | COc1ccnc(C(=O)N[C@@H](C)C(=O)O[C@@H](C)[C@H](Sc2ccc(C)cc2C)c2ccccc2)c1O [Compound 44] | > 80 | ≤ 80 | > 80 | ≤ 80 | –
6 | CCc1cc(F)ccc1[C@@H](Sc1ccccc1)[C@H](C)OC(=O)[C@H](C)NC(=O)c1nccc(OC)c1O [Compound 57] | – | – | – | – | SEPTTR 1DP disease control rating (Zymoseptoria tritici; 1 Day Protectant): B (≤80); SEPTTR 3DC disease control rating (Zymoseptoria tritici; 3 Day Curative): A (>80); PUCCRT 1DP disease control rating (Puccinia triticina; 1 Day Protectant): A (>80); PUCCRT 3DC disease control rating (Puccinia triticina; 3 Day Curative): D (≤0)
7 | COc1ccnc(C(=O)N[C@@H](C)C(=O)O[C@@H](C)[C@H](Sc2ccccc2)c2ccccc2)c1O [Compound 54] | ≤ 80 | > 80 | > 80 | ≤ 80 | –
8 | COc1ccnc(C(=O)N[C@@H](C)C(=O)O[C@@H](C)[C@H](Sc2ccc(F)cc2C)c2ccc(F)cc2C)c1O [Compound 49] | > 80 | > 80 | > 80 | ≤ 80 | –
9 | COc1ccnc(C(=O)N[C@@H](C)C(=O)O[C@@H](C)[C@H](Sc2ccc(C(F)(F)F)cn2)c2ccccc2)c1O [Compound 52] | ≤ 0 | ≤ 80 | ≤ 80 | ≤ 80 | –
10 | COc1ccnc(C(=O)N[C@@H](C)C(=O)O[C@@H](C)[C@H](Sc2ccc(C)cc2)c2ccccc2)c1O [Compound 36] | ≤ 80 | ≤ 80 | > 80 | > 80 | –
11 | CCc1cc(F)ccc1[C@@H](Sc1ccccc1)[C@H](C)OC(=O)[C@H](C)NC(=O)c1nccc(OC)c1O [Compound 40] | > 80 | > 80 | > 80 | – | PUCCRT 3DC disease control rating (Puccinia triticina; 3 Day Curative): A (>80)
12 | COc1ccnc(C(=O)N[C@@H](C)C(=O)O[C@@H](C)[C@H](Sc2cccc(Cl)c2)c2ccccc2)c1O [Compound 35] | ≤ 80 | ≤ 80 | > 80 | > 80 | –
13 | COc1ccnc(C(=O)N[C@@H](C)C(=O)O[C@@H](C)[C@H](SCC(C)C)c2ccccc2)c1O [Compound 47] | ≤ 0 | > 80 | ≤ 80 | ≤ 80 | –
14 | COc1ccnc(C(=O)N[C@@H](C)C(=O)O[C@@H](C)[C@H](Sc2ccccc2)c2ccc(F)cc2)c1OC(C)=O [Compound 61] | – | – | – | – | pest or weed control at 121.5 g/ha (Zymoseptoria tritici; [1]): ≤ 80%; pest or weed control at 121.5 g/ha (Zymoseptoria tritici; [2]): ≤ 0%; pest or weed control at 121.5 g/ha (Puccinia triticina; [3]): > 80%; pest or weed control at 121.5 g/ha (Puccinia triticina; [4]): ≤ 80%
15 | COc1ccnc(C(=O)N[C@@H](C)C(=O)O[C@@H](C)[C@H](SC(C)C)c2ccccc2)c1O [Compound 46] | ≤ 0 | > 80 | ≤ 80 | ≤ 80 | –
16 | COc1ccnc(C(=O)N[C@@H](C)C(=O)O[C@@H](C)[C@H](Sc2ccc(F)cc2C)c2ccccc2)c1O [Compound 38] | > 80 | > 80 | > 80 | – | PUCCRT 3DC disease control rating (Puccinia triticina; 3 Day Curative): A (>80)
17 | COc1ccnc(C(=O)N[C@@H](C)C(=O)O[C@@H](C)[C@H](Sc2ccc(F)cc2)c2ccccc2)c1O [Compound 37] | ≤ 0 | ≤ 80 | ≤ 80 | ≤ 80 | –
18 | COc1ccnc(C(=O)N[C@@H](C)C(=O)O[C@@H](C)[C@H](Sc2ccc(F)cc2)c2ccc(F)cc2C)c1OC(C)=O [Compound 75] | – | – | – | – | pest or weed control at 121.5 g/ha (Zymoseptoria tritici; [1]): > 80%; pest or weed control at 121.5 g/ha (Zymoseptoria tritici; [2]): > 80%; pest or weed control at 121.5 g/ha (Puccinia triticina; [3]): ≤ 80%; pest or weed control at 121.5 g/ha (Puccinia triticina; [4]): ≤ 0%
19 | COc1ccnc(C(=O)N[C@@H](C)C(=O)O[C@@H](C)[C@H](Sc2ccccc2)c2ccc(F)cc2C)c1O [Compound 51] | > 80 | > 80 | > 80 | ≤ 80 | –
20 | COc1ccnc(C(=O)N[C@@H](C)C(=O)O[C@@H](C)[C@@H](c2ccccc2)S(=O)(=O)Cc2ccccc2)c1O [Compound 48] | ≤ 80 | ≤ 80 | ≤ 0 | ≤ 0 | –
21 | COc1ccnc(C(=O)N[C@@H](C)C(=O)O[C@@H](C)[C@@H](c2ccccc2)[S+]([O-])c2ccc(C)cc2C)c1OC(C)=O (stereo partly drawn) [Compound 73] | – | – | – | – | pest or weed control at 121.5 g/ha (Zymoseptoria tritici; [1]): ≤ 80%; pest or weed control at 121.5 g/ha (Zymoseptoria tritici; [2]): ≤ 0%; pest or weed control at 121.5 g/ha (Puccinia triticina; [3]): ≤ 0%; pest or weed control at 121.5 g/ha (Puccinia triticina; [4]): ≤ 0%
22 | COc1ccnc(C(=O)N[C@@H](C)C(=O)O[C@@H](C)[C@@H](c2ccccc2)[S+]([O-])Cc2ccccc2)c1OC(C)=O (stereo partly drawn) [Compound 74] | – | – | – | – | pest or weed control at 121.5 g/ha (Zymoseptoria tritici; [1]): ≤ 0%; pest or weed control at 121.5 g/ha (Zymoseptoria tritici; [2]): ≤ 0%; pest or weed control at 121.5 g/ha (Puccinia triticina; [3]): ≤ 0%; pest or weed control at 121.5 g/ha (Puccinia triticina; [4]): ≤ 0%
23 | COc1ccnc(C(=O)N[C@@H](C)C(=O)O[C@@H](C)[C@H](SCc2ccccc2)c2ccccc2)c1O [Compound 45] | ≤ 0 | ≤ 80 | ≤ 80 | ≤ 80 | –
24 | COc1ccnc(C(=S)N[C@@H](C)C(=O)O[C@@H](C)[C@H](Sc2ccc(F)cc2C)c2ccccc2)c1OC(C)=O [Compound 83] | – | – | – | – | pest or weed control at 121.5 g/ha (Zymoseptoria tritici; [1]): ≤ 80%; pest or weed control at 121.5 g/ha (Zymoseptoria tritici; [2]): ≤ 0%; pest or weed control at 121.5 g/ha (Puccinia triticina; [3]): ≤ 80%; pest or weed control at 121.5 g/ha (Puccinia triticina; [4]): ≤ 0%
25 | COc1ccnc(C(=O)N[C@@H](C)C(=O)O[C@@H](C)[C@H](Sc2ccc(F)cc2C)c2ccccc2)c1OC(C)=O [Compound 60] | – | – | – | – | pest or weed control at 121.5 g/ha (Zymoseptoria tritici; [1]): > 80%; pest or weed control at 121.5 g/ha (Zymoseptoria tritici; [2]): ≤ 0%; pest or weed control at 121.5 g/ha (Puccinia triticina; [3]): > 80%; pest or weed control at 121.5 g/ha (Puccinia triticina; [4]): ≤ 80%
26 | CCc1cc(F)ccc1[C@@H](Sc1ccccc1)[C@H](C)OC(=O)[C@H](C)NC(=O)c1nccc(OC)c1OC(C)=O [Compound 59] | – | – | – | – | pest or weed control at 121.5 g/ha (Zymoseptoria tritici; [1]): ≤ 80%; pest or weed control at 121.5 g/ha (Zymoseptoria tritici; [2]): ≤ 80%; pest or weed control at 121.5 g/ha (Puccinia triticina; [3]): > 80%; pest or weed control at 121.5 g/ha (Puccinia triticina; [4]): ≤ 80%
27 | COc1ccnc(C(=O)N[C@@H](C)C(=O)O[C@@H](C)[C@@H](c2ccccc2)[S+]([O-])c2ccc(F)cc2)c1O (stereo partly drawn) [Compound 42] | ≤ 0 | ≤ 80 | ≤ 0 | ≤ 0 | –
